Test results as given in patent publication US7396837B2, “Antitumoral analogs of lamellarins” (Pharma Mar, S.A.U., priority 2002, dated 2008).

Key:
Assay type in all cases: cell-based
K-562 = experiment: SRB colorimetric cell growth inhibition assay, K-562; details: Homo sapiens, K562, K-562; for GI50: GI=growth inhibition, read-out: GI50 K-562; for CC50: cell killing (cytotoxic effect), read-out: LC50 K-562; for IC (TGI): total growth inhibition (cytostatic effect), read-out: TGI K-562
How it was run: (§1)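 In this cytotoxicity screen, compound stays in contact with the cultured human cancer cells without washout; sulforhodamine B binding gives the measure of cell number, and endpoints separate growth inhibition from cytostasis (TGI) and killing (LC).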

A-549 = experiment: SRB colorimetric cell growth inhibition assay, A-549; details: Homo sapiens, A549, A-549; for GI50: GI=growth inhibition, read-out: GI50 A-549; for CC50: cell killing (cytotoxic effect), read-out: LC50 A-549; for IC (TGI): total growth inhibition (cytostatic effect), read-out: TGI A-549
How it was run: as §1

SK-MEL-28 = experiment: SRB colorimetric cell growth inhibition assay, SK-MEL-28; details: Homo sapiens, SK-MEL-28, MEL-28; for GI50: GI=growth inhibition, read-out: GI50 MEL-28; for CC50: cell killing (cytotoxic effect), read-out: LC50 MEL-28; for IC (TGI): total growth inhibition (cytostatic effect), read-out: TGI MEL-28
How it was run: as §1

HT-29 = experiment: SRB colorimetric cell growth inhibition assay, HT-29; details: Homo sapiens, HT-29, HT-29; for GI50: GI=growth inhibition, read-out: GI50 HT-29; for CC50: cell killing (cytotoxic effect), read-out: LC50 HT-29; for IC (TGI): total growth inhibition (cytostatic effect), read-out: TGI HT-29
How it was run: as §1

LoVo = experiment: SRB colorimetric cell growth inhibition assay, LoVo; details: Homo sapiens, LoVo; for GI50: GI=growth inhibition, read-out: GI50 LOVO; for CC50: cell killing (cytotoxic effect), read-out: LC50 LOVO; for IC (TGI): total growth inhibition (cytostatic effect), read-out: TGI LOVO
How it was run: as §1

LoVo-Dox = experiment: SRB colorimetric cell growth inhibition assay, LoVo-Dox (MDR); details: Homo sapiens, LOVO-DOX; for GI50: GI=growth inhibition, read-out: GI50 LOVO-DOX; for CC50: cell killing (cytotoxic effect), read-out: LC50 LOVO-DOX; for IC (TGI): total growth inhibition (cytostatic effect), read-out: TGI LOVO-DOX
How it was run: as §1

DU-145 = experiment: SRB colorimetric cell growth inhibition assay, DU-145; details: Homo sapiens, DU-145, DU-145; for GI50: GI=growth inhibition, read-out: GI50 DU-145; for CC50: cell killing (cytotoxic effect), read-out: LC50 DU-145; for IC (TGI): total growth inhibition (cytostatic effect), read-out: TGI DU-145
How it was run: as §1

LNCaP = experiment: SRB colorimetric cell growth inhibition assay, LNCaP; details: Homo sapiens, LNCaP, LN-caP; for GI50: GI=growth inhibition, read-out: GI50 LN-caP; for CC50: cell killing (cytotoxic effect), read-out: LC50 LN-caP; for IC (TGI): total growth inhibition (cytostatic effect), read-out: TGI LN-caP
How it was run: as §1

SK-BR-3 = experiment: SRB colorimetric cell growth inhibition assay, SK-BR-3; details: Homo sapiens, SK-BR-3, SK-BR-3; for GI50: GI=growth inhibition, read-out: GI50 SK-BR-3; for CC50: cell killing (cytotoxic effect), read-out: LC50 SK-BR-3; for IC (TGI): total growth inhibition (cytostatic effect), read-out: TGI SK-BR-3
How it was run: as §1

IGROV = experiment: SRB colorimetric cell growth inhibition assay, IGROV; details: Homo sapiens, IGROV; for GI50: GI=growth inhibition, read-out: GI50 IGROV; for CC50: cell killing (cytotoxic effect), read-out: LC50 IGROV; for IC (TGI): total growth inhibition (cytostatic effect), read-out: TGI IGROV
How it was run: as §1

IGROV-ET = experiment: SRB colorimetric cell growth inhibition assay, IGROV-ET (ET-743 resistant); details: Homo sapiens, IGROV-ET; for GI50: GI=growth inhibition, read-out: GI50 IGROV-ET; for CC50: cell killing (cytotoxic effect), read-out: LC50 IGROV-ET; for IC (TGI): total growth inhibition (cytostatic effect), read-out: TGI IGROV-ET
How it was run: as §1

HeLa = experiment: SRB colorimetric cell growth inhibition assay, HeLa; details: Homo sapiens, HeLa; for GI50: GI=growth inhibition, read-out: GI50 HELA; for CC50: cell killing (cytotoxic effect), read-out: LC50 HELA; for IC (TGI): total growth inhibition (cytostatic effect), read-out: TGI HELA
How it was run: as §1

HeLa-APL = experiment: SRB colorimetric cell growth inhibition assay, HeLa-APL (aplidine resistant); details: Homo sapiens, HELA-APL; for GI50: GI=growth inhibition, read-out: GI50 HELA-APL; for CC50: cell killing (cytotoxic effect), read-out: LC50 HELA-APL; for IC (TGI): total growth inhibition (cytostatic effect), read-out: TGI HELA-APL
How it was run: as §1

PANC-1 = experiment: SRB colorimetric cell growth inhibition assay, PANC-1; details: Homo sapiens, PANC-1, PANC-1; for GI50: GI=growth inhibition, read-out: GI50 PANC-1; for CC50: cell killing (cytotoxic effect), read-out: LC50 PANC-1; for IC (TGI): total growth inhibition (cytostatic effect), read-out: TGI PANC-1
How it was run: as §1

`COc1cc(-c2c3c4cc(OC)c(OC(=O)[C@H](C)N)cc4oc(=O)c3n3ccc4cc(OC(=O)[C@H](C)N)c(OC)cc4c23)ccc1OC(=O)[C@H](C)N` [Compound 199] was tested, and the GI50 (K-562) was 11.2 nM, the CC50 (K-562) was 281 nM and the IC (TGI) (K-562) was 55.5 nM. It also gave a GI50 (A-549) of 60.6 nM, a CC50 (A-549) of 12200 nM and an IC (TGI) (A-549) of 1330 nM. The GI50 (SK-MEL-28) was 32.6 nM, the CC50 (SK-MEL-28) was 7040 nM and the IC (TGI) (SK-MEL-28) was 151 nM. It also gave a GI50 (HT-29) of 2140 nM, a CC50 (HT-29) of 12200 nM and an IC (TGI) (HT-29) of 6710 nM. For the same compound, the GI50 (LoVo) was 128 nM, the CC50 (LoVo) was 879 nM and the IC (TGI) (LoVo) was 335 nM. The GI50 (LoVo-Dox) was 73.7 nM, the CC50 (LoVo-Dox) was 12200 nM and the IC (TGI) (LoVo-Dox) was 499 nM. For the same compound, the GI50 (DU-145) was 3.73 nM, the CC50 (DU-145) was 37.2 nM and the IC (TGI) (DU-145) was 9.93 nM. The GI50 (LNCaP) was 15.8 nM, the CC50 (LNCaP) was 392 nM and the IC (TGI) (LNCaP) was 89.2 nM. The GI50 (SK-BR-3) was 46.6 nM, the CC50 (SK-BR-3) was 8280 nM and the IC (TGI) (SK-BR-3) was 97.4 nM. The GI50 (IGROV) was 18.9 nM, the CC50 (IGROV) was 873 nM and the IC (TGI) (IGROV) was 96.2 nM. It also gave a GI50 (IGROV-ET) of 31.3 nM, a CC50 (IGROV-ET) of 12200 nM and an IC (TGI) (IGROV-ET) of 159 nM. It also gave a GI50 (HeLa) of 29.9 nM, a CC50 (HeLa) of 651 nM and an IC (TGI) (HeLa) of 199 nM. The GI50 (HeLa-APL) was 71.8 nM, the CC50 (HeLa-APL) was 574 nM and the IC (TGI) (HeLa-APL) was 242 nM. The GI50 (PANC-1) was 36.9 nM, the CC50 (PANC-1) was 8080 nM and the IC (TGI) (PANC-1) was 276 nM.

Work on `COc1cc(-c2c3c4cc(OC)c(OC(=O)[C@@H](N)Cc5ccccc5)cc4oc(=O)c3n3ccc4cc(OC(=O)[C@@H](N)Cc5ccccc5)c(OC)cc4c23)ccc1OC(=O)[C@@H](N)Cc1ccccc1` [Compound 204] yielded a GI50 (K-562) of 7.48 nM, a CC50 (K-562) of 596 nM and an IC (TGI) (K-562) of 203 nM. The GI50 (A-549) was 31.1 nM, the CC50 (A-549) was 9520 nM and the IC (TGI) (A-549) was 1000 nM. The GI50 (SK-MEL-28) was 26.8 nM, the CC50 (SK-MEL-28) was 7140 nM and the IC (TGI) (SK-MEL-28) was 243 nM. For the same compound, the GI50 (HT-29) was 1400 nM, the CC50 (HT-29) was 9520 nM and the IC (TGI) (HT-29) was 3800 nM. It also gave a GI50 (LoVo) of 113 nM, a CC50 (LoVo) of 463 nM and an IC (TGI) (LoVo) of 228 nM. It also gave a GI50 (LoVo-Dox) of 160 nM, a CC50 (LoVo-Dox) of 9520 nM and an IC (TGI) (LoVo-Dox) of 6340 nM. The GI50 (DU-145) was 5.63 nM, the CC50 (DU-145) was 44.7 nM and the IC (TGI) (DU-145) was 17.4 nM. For the same compound, the GI50 (LNCaP) was 79 nM, the CC50 (LNCaP) was 597 nM and the IC (TGI) (LNCaP) was 229 nM. For the same compound, the GI50 (SK-BR-3) was 151 nM, the CC50 (SK-BR-3) was 1090 nM and the IC (TGI) (SK-BR-3) was 390 nM. For the same compound, the GI50 (IGROV) was 23.8 nM, the CC50 (IGROV) was 526 nM and the IC (TGI) (IGROV) was 113 nM. It also gave a GI50 (IGROV-ET) of 18 nM, a CC50 (IGROV-ET) of 9520 nM and an IC (TGI) (IGROV-ET) of 109 nM. The GI50 (HeLa) was 36.9 nM, the CC50 (HeLa) was 452 nM and the IC (TGI) (HeLa) was 172 nM. It also gave a GI50 (HeLa-APL) of 88.8 nM, a CC50 (HeLa-APL) of 594 nM and an IC (TGI) (HeLa-APL) of 235 nM. It also gave a GI50 (PANC-1) of 44.7 nM, a CC50 (PANC-1) of 392 nM and an IC (TGI) (PANC-1) of 171 nM.

Work on `COc1cc(-c2c3c4cc(OC)c(OC(=O)C[C@H](N)C(C)C)cc4oc(=O)c3n3ccc4cc(OC(=O)C[C@H](N)C(C)C)c(OC)cc4c23)ccc1OC(=O)C[C@H](N)C(C)C` [Compound 206] yielded a GI50 (K-562) of 31.1 nM, a CC50 (K-562) of 4230 nM and an IC (TGI) (K-562) of 1110 nM. For the same compound, the GI50 (A-549) was 55.8 nM, the CC50 (A-549) was 2770 nM and the IC (TGI) (A-549) was 410 nM. The GI50 (SK-MEL-28) was 44 nM, the CC50 (SK-MEL-28) was 1040 nM and the IC (TGI) (SK-MEL-28) was 169 nM. The GI50 (HT-29) was 1320 nM, the CC50 (HT-29) was 10500 nM and the IC (TGI) (HT-29) was 10500 nM. For the same compound, the GI50 (LoVo) was 167 nM, the CC50 (LoVo) was 660 nM and the IC (TGI) (LoVo) was 331 nM. The GI50 (LoVo-Dox) was 294 nM, the CC50 (LoVo-Dox) was 6370 nM and the IC (TGI) (LoVo-Dox) was 1010 nM. The GI50 (DU-145) was 21.8 nM, the CC50 (DU-145) was 72.5 nM and the IC (TGI) (DU-145) was 39.9 nM. It also gave a GI50 (LNCaP) of 75.2 nM, a CC50 (LNCaP) of 3330 nM and an IC (TGI) (LNCaP) of 475 nM. For the same compound, the GI50 (SK-BR-3) was 70.1 nM, the CC50 (SK-BR-3) was 2890 nM and the IC (TGI) (SK-BR-3) was 451 nM. For the same compound, the GI50 (IGROV) was 52.7 nM, the CC50 (IGROV) was 589 nM and the IC (TGI) (IGROV) was 194 nM. The GI50 (IGROV-ET) was 29.7 nM, the CC50 (IGROV-ET) was 589 nM and the IC (TGI) (IGROV-ET) was 190 nM. For the same compound, the GI50 (HeLa) was 50.5 nM, the CC50 (HeLa) was 1930 nM and the IC (TGI) (HeLa) was 330 nM. It also gave a GI50 (HeLa-APL) of 83.4 nM, a CC50 (HeLa-APL) of 2820 nM and an IC (TGI) (HeLa-APL) of 523 nM. The GI50 (PANC-1) was 137 nM, the CC50 (PANC-1) was 6250 nM and the IC (TGI) (PANC-1) was 1270 nM.
